This note sets out measurements from ChEMBL document CHEMBL1139066, “Analogues of 2-crotonyloxymethyl-(4R,5R,6R)-4,5,6-trihydroxycyclohex-2-enone (COTC) with anti-tumor properties” (Bioorg Med Chem Lett, 2007).

One test concerns NCI-H460. Put plainly: Cytotoxicity against human H460 cells by MTT assay. The class given is functional, cell-based. For orientation: Tetrazolium assays rely on reduction of a dye to a coloured formazan, in cell work by metabolically active cells.
The next test concerns A549. Put plainly: Cytotoxicity against human A549 cells by MTT assay. The class given is functional, cell-based.

On to `C/C=C/C(=O)OCC1=C[C@@H](O)[C@H](O)CC1=O`, for which the 50% inhibitory concentration (IC50) came to 158 µM in the test with NCI-H460 and 147 µM in the test on A549.
Turning to `C/C=C/C(=O)OCC1=C[C@H]2O[C@](C)(OC)[C@@](C)(OC)O[C@@H]2CC1=O`, the IC50 with NCI-H460 came out at 60 µM; in the test on A549 it was 32 µM.
With `C/C=C/C(=O)OCC1=C[C@H]2O[C@](C)(OC)[C@@](C)(OC)O[C@@H]2[C@H](F)C1=O`, the values for the half-inhibitory concentration (IC50) with NCI-H460 and with A549 were 43 µM and 31 µM, respectively.
Taken in the same sequence, the figures for `C/C=C/C(=O)OCC1=CC(O)CCC1=O` (configuration not stated) were 10 µM and 24 µM.
For the compound `C/C=C/C(=O)OCC1=C[C@@H](O)[C@H](O)[C@H](F)C1=O`, the 50% inhibitory concentration (IC50) in the test on NCI-H460 was > 200 µM; in the test with A549 it was 164 µM.
Taken in the same sequence, the figures for `C/C=C/C(=O)OCC1=CCCCC1=O` were 40 µM and 55 µM.

What is called IC50 is the concentration that inhibits the measured activity by half. A higher IC50 goes with weaker potency.
